In ChEMBL document CHEMBL3045927, “Synthesis of 4-methyl-1,2,3-thiadiazole derivatives via Ugi reaction and their biological activities” (2010):

Tests used:
Format in all cases: functional
Colletotrichum lagenaria = test: Fungicidal activity against Colletotrichum lagenaria at 50 ug/ml by growth inhibition method; set-up: scale not given: the % may be the effect or the level left
Fusarium graminearum = test: Fungicidal activity against Fusarium graminearum at 50 ug/ml by growth inhibition method; set-up: scale not given: the % may be the effect or the level left
Tobacco mosaic virus [1] = test: In vivo antiviral activity against Tobacco mosaic virus (TMV) infected tobacco leaves assessed as protective effect at 500 ug/ml treated 12 hr before viral inoculation measured at 2-3 days after viral challenge
[2] = tested on: Botryosphaeria berengeriana; test: Fungicidal activity against Botryosphaeria berengeriana at 50 ug/ml by growth inhibition method; set-up: scale not given: the % may be the effect or the level left
Rhizoctonia solani = test: Fungicidal activity against Rhizoctonia solani at 50 ug/ml by growth inhibition method; set-up: scale not given: the % may be the effect or the level left
Mycosphaerella arachidis = test: Fungicidal activity against Mycosphaerella arachidis at 50 ug/ml by growth inhibition method; set-up: scale not given: the % may be the effect or the level left
Tobacco mosaic virus [3] = test: In vivo antiviral activity against Tobacco mosaic virus (TMV) infected tobacco leaves assessed as curative effect at 500 ug/ml treated after viral inoculation measured at 2-3 days after viral challenge
Phytophthora infestans = test: Fungicidal activity against Phytophthora infestans at 50 ug/ml by growth inhibition method; set-up: scale not given: the % may be the effect or the level left
Alternaria solani = test: Fungicidal activity against Alternaria solani at 50 ug/ml by growth inhibition method; set-up: scale not given: the % may be the effect or the level left
Tobacco mosaic virus [4] = test: In vivo antiviral activity against Tobacco mosaic virus (TMV) infected tobacco leaves assessed as inactivation effect at 100 ug/ml co-treated with virus for 30 min before inoculation onto leaves measured at 2-3 days after viral challenge
Tobacco mosaic virus [5] = test: In vitro antiviral activity against Tobacco mosaic virus (TMV) infected tobacco leaves at 100 ug/ml
Tobacco mosaic virus [6] = test: In vivo antiviral activity against Tobacco mosaic virus (TMV) infected tobacco leaves assessed as protective effect at 100 ug/ml treated 12 hr before viral inoculation measured at 2-3 days after viral challenge
Pyricularia grisea = test: Fungicidal activity against Magnaporthe grisea at 50 ug/ml by growth inhibition method; set-up: scale not given: the % may be the effect or the level left
Thanatephorus cucumeris = test: Fungicidal activity against Thanatephorus cucumeris at 50 ug/ml by growth inhibition method; set-up: scale not given: the % may be the effect or the level left
Nicotiana tabacum [7] = test: Induction of systemic acquired resistance activity in TMV infected-Nicotiana tabacum (tobacco) leaves at 100 ug/ml
Tobacco mosaic virus [8] = test: In vivo antiviral activity against Tobacco mosaic virus (TMV) infected tobacco leaves assessed as curative effect at 100 ug/ml treated after viral inoculation measured at 2-3 days after viral challenge
Cercospora beticola = test: Fungicidal activity against Cercospora beticola at 50 ug/ml by growth inhibition method; set-up: scale not given: the % may be the effect or the level left
Tobacco mosaic virus [9] = test: In vitro antiviral activity against Tobacco mosaic virus (TMV) infected tobacco leaves at 500 ug/ml
Nicotiana tabacum [10] = test: Induction of systemic acquired resistance activity in TMV infected-Nicotiana tabacum (tobacco) leaves at 50 ug/ml
Tobacco mosaic virus [11] = test: In vivo antiviral activity against Tobacco mosaic virus (TMV) infected tobacco leaves assessed as inactivation effect at 500 ug/ml co-treated with virus for 30 min before inoculation onto leaves measured at 2-3 days after viral challenge

Cc1ccc(N(C(=O)c2snnc2C)C(C(=O)NC2CCCCC2)c2ccccc2C(F)(F)F)cc1F (stereo not given)
Activity (Colletotrichum lagenaria): 47% | Activity (Fusarium graminearum): 15% | Activity (Tobacco mosaic virus [1]): 51% | Activity [2]: 23% | Activity (Rhizoctonia solani): 37% | Activity (Mycosphaerella arachidis): 29% | Activity (Tobacco mosaic virus [3]): 30% | Activity (Phytophthora infestans): 53% | Activity (Alternaria solani): 44% | Activity (Tobacco mosaic virus [4]): 26% | inhibition at 100 µg/mL (Tobacco mosaic virus [5]): 33% | Activity (Tobacco mosaic virus [6]): 49% | Activity (Pyricularia grisea): 29% | Activity (Thanatephorus cucumeris): 11% | Activity (Nicotiana tabacum [7]): 45% | Activity (Tobacco mosaic virus [8]): 13% | Activity (Cercospora beticola): 75% | inhibition at 500 µg/mL (Tobacco mosaic virus [9]): 48% | Activity (Nicotiana tabacum [10]): 57% | Activity (Tobacco mosaic virus [11]): 39%

Cc1ccc(N(C(=O)c2snnc2C)C(C(=O)NC2CCCCC2)c2cccc(C(F)(F)F)c2)cc1F (stereo not given)
Activity (Colletotrichum lagenaria): 95% | Activity (Fusarium graminearum): 62% | Activity (Tobacco mosaic virus [1]): 54% | Activity [2]: 85% | Activity (Rhizoctonia solani): 97% | Activity (Mycosphaerella arachidis): 71% | Activity (Tobacco mosaic virus [3]): 42% | Activity (Phytophthora infestans): 88% | Activity (Alternaria solani): 100% | Activity (Tobacco mosaic virus [4]): 21% | inhibition at 100 µg/mL (Tobacco mosaic virus [5]): 29% | Activity (Tobacco mosaic virus [6]): 19% | Activity (Pyricularia grisea): 14% | Activity (Thanatephorus cucumeris): 74% | Activity (Nicotiana tabacum [7]): 38% | Activity (Tobacco mosaic virus [8]): 28% | Activity (Cercospora beticola): 0% | inhibition at 500 µg/mL (Tobacco mosaic virus [9]): 67% | Activity (Nicotiana tabacum [10]): 68% | Activity (Tobacco mosaic virus [11]): 31%
